# Tested on: Guinea pig tracheal smooth muscle (GPTSM)
# Test: Electrical field stimulated guinea pig tracheal smooth muscle in vitro (ex vivo) model of bronchodilation
# Details: Cavia porcellus; guinea pig tracheal strips, sub-maximal EFS; 95% CI 0.78-0.94; read-out: IC50, inhibition of EFS-induced tracheal smooth muscle contraction
# From the text: Electrical Field Stimulated Guinea Pig Tracheal Smooth Muscle In Vitro (Ex Vivo) Model for the Assessment of Bronchodilation.
# It is possible to assess the bronchodilating effects of sGC stimulators by using the system described below. This system allowed us to determine potency, efficacy and duration of action of several sGC stimulators, as well as to assess potential side effects such as blood pressure, or heart rate changes. […]
# On each experimental day, a guinea pig was killed by exposure to a rising concentration of CO2 and the trachea removed. […] Tissues were washed with Kreb's buffer and stimulated using the previously determined sub-maximal voltage for 1 hour to establish a stable baseline contraction prior to assessment of compound activity.
# A cumulative dose response curve (DRC) to each test substance was then performed and changes in smooth muscle contraction measured. The effect of each test substance in each experiment was expressed as a percentage inhibition of the baseline contraction, normalized to the relevant vehicle controls. […] The data from all three experiments was pooled, the DRC plotted, and the test substance potency and efficacy determined.
compound,measurement,value
CC(C)[N+]1(C)[C@@H]2CC[C@H]1C[C@@H](OC(=O)C(CO)c1ccccc1)C2 (stereo partly shown) [Ipratropium bromide],IC50,0.86 nM

# — US20150342954A1, “2-BENZYL, 3-(PYRIMIDIN-2-YL) SUBSTITUTED PYRAZOLES USEFUL AS SGC STIMULATORS” (IRONWOOD PHARMACEUTICALS, INC., priority 2011, published 2015)
